# Values of other authors in patent publication US6350444B1, “Gene therapy for pulmonary edema using adenovirus vectors encoding Na,K-ATPase” (Edema Clearance, Inc., priority 1998, dated 2002).
# pIC50: −log10 of the molar value.
# Experiments:
# [1] = system: isolated rat lungs
# [2] = biological target: rat α1 subunit (Rattus norvegicus, UniProt P06685); details: read-out: IC50 of ouabain
Structure (SMILES),lung liquid clearance [1],pIC50 [2]
N=C(N)NC(=O)c1nc(Cl)c(N)nc1N [amiloride],decreased,–
C[C@@H]1O[C@@H](O[C@H]2C[C@@H](O)[C@]3(CO)[C@H]4[C@H](O)C[C@]5(C)[C@@H](C6=CC(=O)OC6)CC[C@]5(O)[C@@H]4CC[C@]3(O)C2)[C@H](O)[C@H](O)[C@H]1O [ouabain],decreased,3.00
